Key:
brassinin oxidase (BO) [1] = assay: Inhibitory effect of paldoxins on purified BO (brassinin as substrate, HPLC-DAD); format: biochemical, Leptosphaeria maculans; settings: for Inhibiton (%) of BO: brassinin 0.10 mM, purified BO, ± SD of four independent experiments
Description: For purification of brassinin oxidase, 600 mL of 48 h old liquid cultures prepared as described above, were incubated with 3-phenylindole (19, 0.05 mM final concentration in cultures to induce BO) for an additional 24 h and then gravity filtered to separate mycelia from culture broth. The mycelia was stored at −20° C. up to 72 h and used to obtain protein extracts containing BO activity.
(§1) The reaction mixture contained DEA (20 mM, pH 8.3), DTT (1 mM), 0.1% (v/v) Triton X-100, brassinin (1, 1.0 mM), phenazine (0.50 mM), and protein extract (50-100 μL) in a total volume of 500 μL. The reaction was carried out at 24° C. for 20 min. A control reaction was stopped by the addition of EtOAc (2 mL) at t=0. The product was extracted with EtOAc (2 mL) and concentrated to dryness. The extract was dissolved in CH3CN (200 μL) and analyzed by HPLC-DAD. The amounts of brassinin (1) and indole-3-carboxaldehyde (3) in the reaction assay were determined using calibration curves built with […]. One enzyme unit (U) is defined as the amount of the enzyme that catalyzes the conversion of one micromole of substrate per minute (μmol·min^−1=U).
The purification of BO was performed in four steps as previously described.^17 The purified enzyme was used for screening test compounds for inhibitory activity. To determine potential inhibitors of BO, inhibition experiments were carried out using brassinin (1, 0.10 mM final concentration) and test compounds (0.10 and 0.30 mM final concentrations). Standard deviation values for assays were determined from four independent experiments.
The inhibitory effects of test compounds on BO activity were tested at 0.10 mM and 0.30 mM using brassinin (1) as substrate (0.10 mM) and purified BO.

[2] = test system: mycelial cultures of L. maculans; assay: Antifungal activity: total protein content of cell-free extracts of treated mycelial cultures; format: cell-based, Leptosphaeria maculans; settings: 24 h, control culture = 1.0
Description: (§2) Liquid cultures of L. maculans (virulent isolate BJ-125, IBCN collection, AAFC) were handled as described in the literature.^13 Fungal spores were subcultured on V8 agar under continuous light at 23±1° C.; after 15 days, fungal spores were collected aseptically and stored at −20° C.^14 Liquid cultures were initiated by inoculating minimal media (100 mL)^15 with fungal spores at 10^7/mL in Erlenmeyer flasks, followed by incubation on a shaker under constant light at 23±1° C.
(§3) For analysis of BO induction, 72 h old liquid cultures (20 mL) were co-incubated with test compounds (final concentrations in culture 0.10, 0.20, and 0.50 mM), and after an additional incubation for 24 h, the mycelia were separated from the culture broth by filtration.
(§4) Frozen mycelia (0.3-1.4 g) from L. maculans were suspended in ice-cold extraction buffer (1 mL) and ground (mortar) for 5 min. The extraction buffer consisted of diethanolamine(DEA, 25 mM, pH 8.3), 5% (v/v) glycerol, D,L-dithiothreitol (DTT, 1 mM), and 1/200 (v/v) protease inhibitor cocktail (P-8215, Sigma-Aldrich Canada). The homogenate was centrifuged at 4° C. for 30 min at 50000 g. The resulting supernatant was used for determination of specific activity of BO. Protein concentrations were determined as described by Bradford^16 using the Coomassie Brilliant Blue method with BSA as a standard.
(§5) Mycelial cultures of L. maculans were incubated with the test compounds (0.10, 0.20, and 0.50 mM) for 24 h to evaluate potential induction of BO activity. The cultures were filtered, the mycelia were extracted with extraction buffer, and the resulting cell-free extracts were analyzed for BO activity using brassinin (1) as substrate. The total protein content of each cell-free extract was determined using a calibration curve built using BSA.

[3] = test system: brassinin oxidase (BO) activity in mycelial cultures of L. maculans; assay: Inducer effect of paldoxins: BO activity in cell-free extracts of treated mycelial cultures; format: cell-based, Leptosphaeria maculans; settings: 24 h, control culture = 1.0
Description: as §2, §3, §4, §1, §5

brassinin oxidase (BO) [4] = settings: 0.30 mM; reference compound, cited from ref. 17; cited from earlier work
[5] = 0.10 mM added to mycelial cultures
[6] = 0.20 mM added to mycelial cultures
[7] = 0.50 mM added to mycelial cultures

Row | Compound | Inhibiton (%) of BO (brassinin oxidase (BO) [1]; test compound 0.10 mM) [%] | Inhibiton (%) of BO (brassinin oxidase (BO) [1]; test compound 0.30 mM) [%] | Relative Protein [2, 5] | Relative Protein [2, 6] | Relative Protein [2, 7] | Relative Specific Activity of BO [3, 5] | Relative Specific Activity of BO [3, 6] | Relative Specific Activity of BO [3, 7] | other results
1 | COc1ccc2[nH]cc(-c3nccs3)c2c1 [I(c), 5-Methoxycamalexin] | 51 ± 4 |  | 0.28 | 0.24 | 0.13 | 1.7 ± 0.3 | 5.8 ± 0.6 | 1.6 ± 0.3 | Inhibiton (%) of BO (brassinin oxidase (BO) [1]; test compound 0.30 mM, listed as 5-Methoxycamalexin I(c)): 72 ± 1%; Inhibiton (%) of BO (brassinin oxidase (BO) [1]; test compound 0.30 mM, listed as 5-methoxycamalexin I(c)): ca. 72%
2 | COc1ccc2c(-c3nccs3)c[nH]c2c1 [I(d), 6-Methoxycamalexin] | 41 ± 6 |  | 0.27 | 0.16 | 0.11 | 2.3 ± 0.1 | 3.7 ± 0.2 | 4.0 ± 0.1 | Inhibiton (%) of BO (brassinin oxidase (BO) [1]; test compound 0.30 mM, listed as 6-Methoxycamalexin I(d)): 63 ± 5%; Inhibiton (%) of BO (brassinin oxidase (BO) [1]; test compound 0.30 mM, listed as 6-methoxycamalexin I(b)): ca. 63%
3 | Fc1ccc2c(-c3ccccc3)c[nH]c2c1 [I(e), 6-Fluoro-3-phenylindole] | 11 ± 4 | 17 ± 6 |  |  |  |  |  |  | 
4 | c1ccc2cc(-c3cnsc3)ccc2c1 [I(g)] |  |  | 0.26 | 0.17 | 0.16 | 2.6 ± 0.2 | 8.5 ± 0.1 | 16.3 ± 3.3 | 
5 | CSC(=S)NCc1cc2ccccc2[nH]1 [Isobrassinin] | 11 ± 5 | 23 ± 6 |  |  |  |  |  |  | 
6 | c1ccc2[nH]c(-c3cscn3)nc2c1 [Thiabendazole, reference compound] | 16 ± 3 | 25 ± 7 | 0.35 | 0.28 | 0.06 | 1.9 ± 0.2 | 4.1 ± 0.2 | 4.9 ± 0.3 | BO inhibitory activity (brassinin oxidase (BO) [4]): ca. 25%
7 | CSC(=S)NCc1c[nH]c2ccccc12 [brassinin, Brassinin] |  |  |  |  |  |  |  |  | Km (brassinin oxidase (BO) [1]; under the enzyme assay conditions): 150 µM

Continued, in another order:

Row | Inhibiton (%) of BO (brassinin oxidase (BO) [1]; test compound 0.10 mM) [%] | Inhibiton (%) of BO (brassinin oxidase (BO) [1]; test compound 0.30 mM) [%] | Compound | Relative Protein [2, 5] | Relative Protein [2, 6] | Relative Protein [2, 7] | Relative Specific Activity of BO [3, 5] | Relative Specific Activity of BO [3, 6] | Relative Specific Activity of BO [3, 7] | other results
8 | 30 ± 4 | 53 ± 4 | c1ccc2c(-c3nccs3)c[nH]c2c1 [Camalexin] | 0.28 | 0.24 | 0.10 | 4.5 ± 0.5 | 6.9±0.3 | 2.5 ± 0.1 | Inhibiton (%) of BO (brassinin oxidase (BO) [1]; test compound 0.30 mM, listed as Camalexin I(h)): 53 ± 7%; Inhibiton (%) of BO (brassinin oxidase (BO) [1]; test compound 0.30 mM, listed as camalexin): 53%
9 | 23 ± 6 | 37 ± 8 | CSC1=NCc2c([nH]c3ccccc23)S1 [Cyclobrassinin] |  |  |  |  |  |  | 
10 | 47 ± 5 |  | Fc1ccc2[nH]cc(-c3nccs3)c2c1 [I(a), 5-Fluorocamalexin] | 0.30 | 0.23 | 0.19 | 5.0 ± 0.2 | 4.9 ± 0.4 | 7.9 ± 0.6 | Inhibiton (%) of BO (brassinin oxidase (BO) [1]; test compound 0.30 mM, listed as 5-Fluorocamalexin I(a)): 63 ± 2%; Inhibiton (%) of BO (brassinin oxidase (BO) [1]; test compound 0.30 mM, listed as 5-fluorocamalexin I(a)): ca. 63%
11 | 29 ± 10 | 46 | Fc1ccc2c(-c3nccs3)c[nH]c2c1 [I(b), 6-Fluorocamalexin] | 0.36 | 0.28 | 0.24 | 3.9 ± 0.1 | 4.0 ± 0.2 | 1.8 ± 0.3 | 
